Source: ChEMBL document CHEMBL1201862, “PubChem BioAssay data set” (2004)
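48-hour exposure; five concentrations; linearly interpolated endpoints. The concentration for 50% growth inhibition is given as GI50.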 Calls of active or inactive are those of the source. Cut-off read from the data, not from the text of the source: active = GI50 up to about 1.1 µM and inactive = higher.

How the values were obtained:
Assay in all cases: DTP human tumour cell line panel, 48 h
SK-MEL-5 = test system: SK-MEL-5
NCI/ADR-RES = test system: NCI/ADR-RES
CAKI-1 = test system: CAKI-1
M14 = test system: M14
UO-31 = test system: UO-31
U-251 = test system: U-251
BT-549 = test system: BT-549
MDA-MB-435 = test system: MDA-MB-435
Hs-578T = test system: Hs-578T
MDA-MB-231 = test system: MDA-MB-231
COLO 205 = test system: COLO 205
MOLT-4 = test system: MOLT-4
EKVX = test system: EKVX
HOP-62 = test system: HOP-62
HOP-92 = test system: HOP-92
TK-10 = test system: TK-10
OVCAR-5 = test system: OVCAR-5
HCT-15 = test system: HCT-15
UACC-257 = test system: UACC-257
RXF 393 = test system: RXF 393
CCRF-CEM = test system: CCRF-CEM
SW-620 = test system: SW-620
NCI-H522 = test system: NCI-H522
HCT-116 = test system: HCT-116
SNB-75 = test system: SNB-75
SF-295 = test system: SF-295
ACHN = test system: ACHN
SK-OV-3 = test system: SK-OV-3
OVCAR-3 = test system: OVCAR-3
RPMI-8226 = test system: RPMI-8226
LOX IMVI = test system: LOX IMVI
IGROV-1 = test system: IGROV-1
OVCAR-4 = test system: OVCAR-4
K562 = test system: K562
KM12 = test system: KM12
SF-539 = test system: SF-539
SN12C = test system: SN12C
UACC-62 = test system: UACC-62
SNB-19 = test system: SNB-19
HT-29 = test system: HT-29
NCI-H23 = test system: NCI-H23
HL-60 = test system: HL-60
Malme-3M = test system: Malme-3M
786-0 = test system: 786-0
A498 = test system: A498
SK-MEL-2 = test system: SK-MEL-2
NCI-H226 = test system: NCI-H226
SR = test system: SR
DU-145 = test system: DU-145
SK-MEL-28 = test system: SK-MEL-28
A549 = test system: A549
SF-268 = test system: SF-268
NCI-H460 = test system: NCI-H460
OVCAR-8 = test system: OVCAR-8
MDA-N = test system: MDA-N
PC-3 = test system: PC-3
HCC 2998 = test system: HCC 2998
MCF7 = test system: MCF7

COc1cc(OC)c(-c2ccc(OCc3ccccc3)c3c(OC)cc(C)cc23)c2c1C(C)=N[C@H](C)C2 was tested, and the GI50 (SK-MEL-5) was 2.27 µM (inactive), the GI50 (NCI/ADR-RES) was 2.12 µM (inactive) and the GI50 (CAKI-1) was > 12.5 µM (inactive). For the same compound, the GI50 (M14) was 2.03 µM (inactive), the GI50 (UO-31) was 1.14 µM (inactive) and the GI50 (U-251) was 2.08 µM (inactive). For the same compound, the GI50 (BT-549) was 3.31 µM (inactive), the GI50 (MDA-MB-435) was 2.3 µM (inactive) and the GI50 (Hs-578T) was 2.29 µM (inactive). The GI50 (MDA-MB-231) was 2.33 µM (inactive), the GI50 (COLO 205) was 2.28 µM (inactive) and the GI50 (MOLT-4) was 2.29 µM (inactive). The GI50 (EKVX) was 2.4 µM (inactive), the GI50 (HOP-62) was 2.26 µM (inactive) and the GI50 (HOP-92) was 1.64 µM (inactive). The GI50 (TK-10) was 1.8 µM (inactive), the GI50 (OVCAR-5) was 2.52 µM (inactive) and the GI50 (HCT-15) was 2.14 µM. The GI50 (UACC-257) was 2.17 µM (inactive), the GI50 (RXF 393) was 2.77 µM (inactive) and the GI50 (CCRF-CEM) was 1.99 µM (inactive). The GI50 (SW-620) was 2.45 µM (inactive), the GI50 (NCI-H522) was 1.82 µM (inactive) and the GI50 (HCT-116) was 2.23 µM (inactive). For the same compound, the GI50 (SNB-75) was 2.29 µM (inactive), the GI50 (SF-295) was 2.01 µM (inactive) and the GI50 (ACHN) was 2.25 µM (inactive). The GI50 (SK-OV-3) was 2.19 µM (inactive), the GI50 (OVCAR-3) was 2.25 µM (inactive) and the GI50 (RPMI-8226) was 1.44 µM (inactive). The GI50 (LOX IMVI) was 1.88 µM (inactive), the GI50 (IGROV-1) was 1.87 µM (inactive) and the GI50 (OVCAR-4) was 2.14 µM (inactive). For the same compound, the GI50 (K562) was 1.55 µM (inactive), the GI50 (KM12) was 2.09 µM (inactive) and the GI50 (SF-539) was 2.38 µM (inactive). The GI50 (SN12C) was 2.04 µM (inactive), the GI50 (UACC-62) was 2.1 µM (inactive) and the GI50 (SNB-19) was 2.68 µM (inactive). For the same compound, the GI50 (HT-29) was 1.97 µM (inactive), the GI50 (NCI-H23) was 2.36 µM (inactive) and the GI50 (HL-60) was 2.2 µM (inactive). The GI50 (Malme-3M) was 1.8 µM (inactive), the GI50 (786-0) was 2.1 µM (inactive) and the GI50 (A498) was 2.16 µM (inactive). The GI50 (SK-MEL-2) was 2.25 µM (inactive), the GI50 (NCI-H226) was 2.64 µM (inactive) and the GI50 (SR) was 1.16 µM (inactive). The GI50 (DU-145) was 2.38 µM (inactive), the GI50 (SK-MEL-28) was 2.36 µM (inactive) and the GI50 (A549) was 2.3 µM (inactive). For the same compound, the GI50 (SF-268) was 1.78 µM (inactive), the GI50 (NCI-H460) was 2.1 µM (inactive) and the GI50 (OVCAR-8) was 1.96 µM (inactive). For the same compound, the GI50 (MDA-N) was 2.15 µM (inactive) and the GI50 (PC-3) was 2.1 µM (inactive).

In the case of Cc1ccc(N(C)S(=O)(=O)c2ccc([N+](=O)[O-])cc2)cc1, the GI50 (SK-MEL-5) is reported as > 10 µM (inactive), the GI50 (NCI/ADR-RES) is reported as 97.9 µM (inactive) and the GI50 (CAKI-1) is reported as > 100 µM (inactive). The GI50 (M14) was 49.8 µM (inactive), the GI50 (UO-31) was 44.3 µM (inactive) and the GI50 (U-251) was > 100 µM (inactive). The GI50 (BT-549) was > 100 µM (inactive), the GI50 (MDA-MB-435) was 81.8 µM (inactive) and the GI50 (Hs-578T) was > 100 µM (inactive). The GI50 (MDA-MB-231) was 85.3 µM (inactive), the GI50 (COLO 205) was > 100 µM (inactive) and the GI50 (MOLT-4) was 34.9 µM (inactive). For the same compound, the GI50 (EKVX) was > 100 µM (inactive), the GI50 (HOP-62) was > 100 µM (inactive) and the GI50 (TK-10) was > 100 µM (inactive). For the same compound, the GI50 (OVCAR-5) was > 100 µM (inactive), the GI50 (HCT-15) was 91.4 µM and the GI50 (UACC-257) was > 100 µM (inactive). The GI50 (RXF 393) was > 100 µM (inactive), the GI50 (CCRF-CEM) was > 100 µM (inactive) and the GI50 (HCC 2998) was 93.5 µM (inactive). The GI50 (SW-620) was > 100 µM (inactive), the GI50 (NCI-H522) was > 100 µM (inactive) and the GI50 (HCT-116) was > 100 µM (inactive). The GI50 (SNB-75) was > 100 µM (inactive), the GI50 (SF-295) was 92.3 µM (inactive) and the GI50 (ACHN) was > 100 µM (inactive). The GI50 (SK-OV-3) was > 100 µM (inactive), the GI50 (OVCAR-3) was > 100 µM (inactive) and the GI50 (RPMI-8226) was 59 µM (inactive). For the same compound, the GI50 (LOX IMVI) was > 100 µM (inactive), the GI50 (IGROV-1) was > 100 µM (inactive) and the GI50 (OVCAR-4) was > 100 µM (inactive). The GI50 (K562) was 41 µM (inactive), the GI50 (KM12) was 74.6 µM (inactive) and the GI50 (SF-539) was > 100 µM (inactive). For the same compound, the GI50 (SN12C) was > 100 µM (inactive), the GI50 (MCF7) was > 100 µM (inactive) and the GI50 (UACC-62) was 52.5 µM (inactive). The GI50 (SNB-19) was > 100 µM (inactive), the GI50 (HT-29) was 74.6 µM (inactive) and the GI50 (HL-60) was 54.6 µM (inactive). For the same compound, the GI50 (Malme-3M) was 38.2 µM (inactive), the GI50 (786-0) was > 100 µM (inactive) and the GI50 (SK-MEL-2) was > 100 µM (inactive). For the same compound, the GI50 (NCI-H226) was 48.9 µM (inactive), the GI50 (SR) was 78.2 µM (inactive) and the GI50 (DU-145) was > 100 µM (inactive). For the same compound, the GI50 (SK-MEL-28) was > 100 µM (inactive), the GI50 (A549) was > 100 µM (inactive) and the GI50 (SF-268) was > 100 µM (inactive). For the same compound, the GI50 (NCI-H460) was 74 µM (inactive), the GI50 (OVCAR-8) was > 100 µM (inactive) and the GI50 (MDA-N) was > 100 µM (inactive). The GI50 (PC-3) was 34.4 µM (inactive).
